Assay results: article PMC10974828, “Identification of Novel Flavonoids and Ansa-Macrolides with Activities against Leishmania donovani through Natural Product Library Screening” (Pathogens, 2024)
Where “and” joins values, the source holds several entries; their conditions need not be identical. Equal values may be shown once. Read-outs that look alike come from different tables or passages of the source.

Key:
[1] = system: L. donovani intracellular amastigotes; assay: Intracellular L. donovani amastigote assay in THP-1 cells (image-based); format: cell-based, Leishmania donovani; details: for IC50: Leishmania donovani, amastigotes in PMA-treated THP-1 cells, 72 h, read-out: Intracellular L. donovani Inhibition IC50; for Selectivity Index (SI): THP-1 CC50 / amastigotes IC50
Method: (§1) PMA-treated THP-1 cells were seeded at 0.8 × 10^4 cells per well in a 384-well plate in RPMI-1640 complete medium supplemented with 10% FBS. After 48 h of incubation at 37 °C in the presence of 5% CO2, the L. donovani amastigotes, isolated from infected hamster liver, were added to the cell culture at a ratio of 10:1. The infected THP-1 cells were treated with screening compounds (the same set used in the promastigotes HTS) at 10 µM, with amphotericin B and miltefosine serving as positive controls and 0.5% DMSO as a negative control. After 72 h, the cells and parasites were washed, stained, and fixed with 5 µM DAPI and 4% PFA. Images were acquired through Operetta® CLS™ (PerkinElmer, Shelton, CT, USA), and the numbers of parasites, host cells, and infection ratios were quantified using the Columbus™ software (https://www.perkinelmer.com/product/image-data-storage-and-analysis-system-columbus, accessed on 7 February 2024) (PerkinElmer, Shelton, CT, USA). The hits identified from the screening were confirmed by testing in a 10-point, 1/2 dilution manner starting from 400, 200, 100, or 50 μM in duplicates of two independent experiments to calculate the IC50 values.
(§2) All of the IC50 and the half-maximal cytotoxic concentration (CC50) values were calculated using two independent experiments. Outliers were excluded, and the dose–response curves were fitted using the GraphPad Prism V6.0 software (GraphPad Software, San Diego, CA, USA) by using a sigmoidal dose–response equation with a variable hill slope option.

THP-1 cells = assay: Host cell cytotoxicity in the intracellular Leishmania assay (THP-1 cell ratio); format: cell-based, Human; details: host THP-1 cells in the intracellular assay, 72 h
Method: as §1, §2

[2] = system: L. donovani promastigotes; assay: L. donovani promastigote viability assay (resazurin); format: cell-based; details: Leishmania donovani; 72 h exposure, resazurin readout, two independent experiments; read-out: L. donovani Promastigote Inhibition IC50
Method: The inhibition of L. donovani promastigote growth was assessed by measuring the conversion of resazurin to resorufin. The promastigotes were dispensed at a density of 5 × 10^4 L. donovani promastigotes per well into 384-well plates and exposed to the natural product library composed of 2562 molecules at 10 μM for 72 h. Following the incubation, resazurin sodium salt was added, and the plates were further incubated for 5 h before fixation using 4% paraformaldehyde. The results were then analyzed using a Victor3™ plate reader (PerkinElmer, Shelton, CT, USA) at an emission wavelength of 590 nm and an excitation wavelength of 530 nm. Amphotericin B and miltefosine served as reference drugs for inhibiting the growth of L. donovani promastigotes. The hits identified from the screening were confirmed by testing in a 10-point, 1/2 dilution manner starting from 400, 200, 100, or 50 μM (depending on the solubility and activity) in duplicates of two independent experiments to calculate the IC50 values.
as §2

L. infantum = system: L. infantum; set-up: method as in PMID 32441133; details: read-out: IC50 against L. infantum; cited from earlier work
[3] = system: eukaryotic RNA polymerase; set-up: method as in PMID 32342856; details: higher constant indicates lower affinity; cited from earlier work
hepatic parasites = system: hepatic parasites; set-up: method as in PMID 37091674; details: murine model of visceral leishmaniasis; cited from earlier work
[4] = system: intracellular amastigotes; set-up: method as in PMID 37091674; details: read-out: IC50 against intracellular amastigotes; cited from earlier work
Trypanosoma brucei = system: Trypanosoma brucei; set-up: method as in PMID 28498323; details: read-out: IC50 against Trypanosoma brucei; cited from earlier work
T. cruzi = system: T. cruzi; set-up: method as in PMID 28498323; details: read-out: IC50 against T. cruzi; cited from earlier work
L. donovani amastigotes [5] = system: L. donovani amastigotes; set-up: method as in PMID 28498323; details: read-out: IC50 against L. donovani amastigotes; cited from earlier work
L. donovani amastigotes [6] = system: L. donovani amastigotes; set-up: method as in PMID 30319238; details: read-out: IC50 against L. donovani amastigotes; cited from earlier work
T. brucei = system: T. brucei; set-up: method as in PMID 30319238; details: read-out: IC50 against T. brucei; cited from earlier work

OC1C=C2CCN3Cc4cc5c(cc4C(C1O)C23)OCO5 (centres unmarked) [BMD-NP-00820]
IC50 [1]: 1.74 ± 0.27 µM | Selectivity Index (SI) [1]: >28.7 | THP-1 Cell Ratio CC50 (THP-1 cells): >50.00 µM | IC50 [2]: 3.99 ± 0.4 µM

O[C@H]1[C@H]2c3cc4c(cc3CN3CCC(=C[C@@H]1O)[C@H]23)OCO4 [BMD-NP-01077, Lycorine]
IC50 [1]: 2.63 ± 0.57 µM | Selectivity Index (SI) [1]: >19.0 | THP-1 Cell Ratio CC50 (THP-1 cells): >50.00 µM | IC50 [2]: 6.99 ± 0.74 µM

CC(C)C1CC(=O)Oc2cc(O)c3c(=O)cc(-c4ccc(O)c(O)c4)oc3c21 (centres unmarked) [BMD-NP-01550]
IC50 [1]: 3.44 ± 0.64 µM | Selectivity Index (SI) [1]: 6.1 | THP-1 Cell Ratio CC50 (THP-1 cells): 20.84 ± 1.04 µM | IC50 [2]: 23.5 ± 0.52 µM

COc1cc([C@@H]2CC(=O)Oc3ccc4c(=O)c(-c5ccccc5)coc4c32)ccc1O [BMD-NP-01555]
IC50 [1]: 2.2 ± 0.29 µM | THP-1 Cell Ratio CC50 (THP-1 cells): >50.00 µM | IC50 [2]: 12.9 ± 0.28 µM

O=C1C[C@H](c2cccnc2)c2c(cc(O)c3c(=O)c(-c4ccc(Cl)cc4)coc23)O1 [BMD-NP-01559]
IC50 [1]: 2.37 ± 0.49 µM | Selectivity Index (SI) [1]: >21.1 | THP-1 Cell Ratio CC50 (THP-1 cells): > 50.00 µM | IC50 [2]: 19.08 ± 0.13 µM

COc1ccc([C@H]2CC(=O)Oc3ccc4c(c32)O/C(=C\c2cc(OC)c(OC)cc2OC)C4=O)cc1O [BMD-NP-01562]
IC50 [1]: 5.1 ± 0.34 µM | Selectivity Index (SI) [1]: >9.8 | THP-1 Cell Ratio CC50 (THP-1 cells): >50.00 µM | IC50 [2]: 9.88 ± 0.71 µM

COc1cc(C=C2Oc3c(ccc4c3C(c3ccnn3C(C)C)CC(=O)O4)C2=O)cc(OC)c1OC (centres unmarked) [BMD-NP-01586]
IC50 [1]: 2.97 ± 0.33 µM | Selectivity Index (SI) [1]: 12.4 | THP-1 Cell Ratio CC50 (THP-1 cells): 36.90 ± 1.13 µM | IC50 [2]: 36.3 ± 0.42 µM

CCCCOc1ccc(C(=O)Oc2c(C)c3c4c5c2C(=O)C(=C(N2CCCCC2)C5=O)NC(=O)C(C)=CC=CC(C)C(O)C(C)C(O)C(C)C(OC(C)=O)C(C)C(OC)C=COC(C)(O3)C4=O)cc1 (centres unmarked) [BMD-NP-02070]
IC50 [1]: 3.34 ± 0.42 µM | Selectivity Index (SI) [1]: >15.0 | IC50 [2]: 29.9 ± 1.27 µM

COC1C=COC2(C)Oc3c(C)c(OC(=O)c4ccccc4)c4c(c3C2=O)C(=O)C(N2CC(C)OC(C)C2)=C(NC(=O)C(C)=CC=CC(C)C(O)C(C)C(O)C(C)C(OC(C)=O)C1C)C4=O (centres unmarked) [BMD-NP-02084]
IC50 [1]: 2.12 ± 0.4 µM | Selectivity Index (SI) [1]: 5.9 | THP-1 Cell Ratio CC50 (THP-1 cells): 12.45 ± 1.02 µM | IC50 [2]: 2.53 ± 0.14 µM

COc1ccc(NC2=C3NC(=O)C(C)=CC=CC(C)C(O)C(C)C(O)C(C)C(OC(C)=O)C(C)C(OC)C=COC4(C)Oc5c(C)c(OC(=O)c6ccc(C)cc6)c(c(c5C4=O)C2=O)C3=O)cc1 (centres unmarked) [BMD-NP-02085]
IC50 [1]: 1.76 ± 0.85 µM | Selectivity Index (SI) [1]: 7.5 and 7.4 | THP-1 Cell Ratio CC50 (THP-1 cells): 13.07 µM and 13.07 ± 0.56 µM | IC50 [2]: 1.76 ± 0.28 µM

COc1ccc(CCOc2cc([C@@H]3CC(=O)Oc4cc(O)c5c(=O)cc(-c6ccc(O)c(O)c6)oc5c43)ccc2OC)cc1 [BMD-NP-02255]
IC50 [1]: 4.9 ± 0.65 µM | THP-1 Cell Ratio CC50 (THP-1 cells): >50.00 µM | IC50 [2]: 45.9 ± 1.09 µM

CCCC1CC(=O)Oc2c(C(=O)C(C)C(C)O)c(O)c3c(c21)OC(C)(C)C=C3 (centres unmarked) [Calanolide E2]
IC50 (L. infantum): 29.1 µM

CO[C@H]1/C=C/O[C@@]2(C)Oc3c(C)c(O)c4c(O)c(cc(O)c4c3C2=O)NC(=O)/C(C)=C\C=C\[C@H](C)[C@H](O)[C@@H](C)[C@@H](O)[C@@H](C)[C@H](OC(C)=O)[C@@H]1C [Rifamycin]
binding constant for eukaryotic RNA polymerase relative to prokaryotic RNA polymerase [3]: 100 times

O=c1cc(-c2ccc(O)cc2)oc2cc(O)cc(O)c12 [apigenin, 4′,5,7-trihydroxyflavone]
reduction in hepatic parasites (hepatic parasites): 99.7% | IC50 [4]: 2.3 µM

CCCCCCC/C=C/C=C/C(=O)NCCc1ccc(O)cc1 [dodeca-2E,4E-dienoic acid 4-hydroxy-2-phenylethylamide]
IC50 (Trypanosoma brucei): 7.17 µM | IC50 (T. cruzi): 5.97 µM | IC50 (L. donovani amastigotes [5]): 13.3 µM

methyl-ent-3β-hydroxylabd-8(17)-en-15-oate
IC50 (L. donovani amastigotes [6]): 7.82 µM | IC50 (T. brucei): 3.84 µM
